The values that follow come from patent US12458024B2, “Compound combination with superior herbicidal activity” (priority 2020, dated 2025).

What all share (format): in vivo
In one assay the test system is Polygonum convolvulus. The experiment in a line: Field trial herbicidal action, indaziflam + pelargonic acid, Polygonum convolvulus. How it is done: (§1) The following active compounds were tested: • Product PeAc contained 249.96 g a.i./L of pelargonic acid in an EC formulation • Product IAF contained 200 g a.i./L of indaziflam formulated as SC formulation • Product TBA contained 500 g a.i./L of terbutylazine formulated as SC formulation 2. Biological Trials Herbicidal Action (Field Trials)
(§2) The growth stages of the different weed or crop plant species are indicated according to the BBCH monograph “Growth stages of mono- and dicotyledonous plants”, 2nd edition, 2001, ed. Uwe Meier, Federal Biological Research Centre for Agriculture and Forestry (Biologische Bundesanstalt für Land und Forstwirtschaft). The respective BBCH stages are mentioned in brackets for the different weed or crop plant species and indicate the BBCH stage for the majority of the respective weed or crop plant species.
(§3) The dose rates of herbicidal ingredients used in each case are indicated for the respective active ingredient in brackets and refer to the amount of active ingredient per hectare (g a.i./ha).
(§4) • A is the efficacy in % when active compound A is applied at an application rate of a g a.i./ha, • B is the efficacy in % when active compound B is applied at an application rate of b g a.i./ha), • EC is the efficacy in % when the active compounds A and B are applied at application rates of a+b g a.i./ha), respectively, and Then EC=A+B−([…]/100)

Assay [1] concerns Chenopodium album. The experiment in a line: Field trial herbicidal action, indaziflam + pelargonic acid, Chenopodium album. How it is done:
as §1, §2, §3, §4

For the next assay, the system named is Abutilon theophrasti. Description: Field trial herbicidal action, indaziflam + pelargonic acid, Abutilon theophrasti. How it is done: as §1, §2, §3, §4
The test system of another assay is Setaria viridis. The experiment in a line: Field trial herbicidal action, indaziflam + pelargonic acid, Setaria viridis. How it is done:
as §1, §2, §3, §4

Assay [2] deals with Echinocloa crus-galli. Description: Field trial herbicidal action, indaziflam + pelargonic acid, Echinocloa crus-galli. How it is done:
as §1, §2, §3, §4

For the next assay, the system named is Panicum maximum. The experiment in a line: Field trial herbicidal action, indaziflam + pelargonic acid, Panicum maximum. How it is done:
as §1, §2, §3, §4

The subject of the next assay is Zea mays. Description: Field trial herbicidal action, indaziflam + pelargonic acid, Zea mays. How it is done: as §1, §2, §3, §4
Another assay concerns Abuthilon theophrasti. Description: Field trial herbicidal action, terbuthylazine + pelargonic acid, Abuthilon theophrasti. How it is done: as §1, §2, §3, §4
A further assay relates to Amaranthus retroflexus. Description: Field trial herbicidal action, terbuthylazine + pelargonic acid, Amaranthus retroflexus. How it is done:
as §1, §2, §3, §4

For assay [3], the system named is Chenopodium album. The experiment in a line: Field trial herbicidal action, terbuthylazine + pelargonic acid, Chenopodium album. On the procedure: as §1, §2, §3, §4
The test system of assay [4] is Echinocloa crus-galli. Description: Field trial herbicidal action, terbuthylazine + pelargonic acid, Echinocloa crus-galli. On the procedure: as §1, §2, §3, §4

Take `Cc1ccc2c(c1)C(Nc1nc(N)nc(C(C)F)n1)C(C)C2` (mixture of isomers) [Indaziflam, N2-[(1R,2S)-2,3-dihydro-2,6-dimethyl-1H-inden-1-yl]-6-[(1RS)-1-fluoroethyl]-1,3,5-triazine-2,4-diamine]: the “Herbicidal Activity 13 DAT [%] (EA)” value turned out to be 55% in the assay with Polygonum convolvulus (50 g a.i./ha); 20% in the assay on Chenopodium album [1] (50 g a.i./ha); 60% with Abutilon theophrasti (10 g a.i./ha); 92% in the assay on Abutilon theophrasti (50 g a.i./ha); 0% in the assay on Setaria viridis (50 g a.i./ha); 0% in the assay on Echinocloa crus-galli [2] (50 g a.i./ha). Moreover, the “Herbicidal Activity 13 DAT [%] (EA)” value with Panicum maximum (50 g a.i./ha) was 5%; in the assay with Zea mays (50 g a.i./ha) it was 10%.
On to `CCCCCCCCC(=O)O` [Pelargonic acid, nonanoic acid], for which the “Herbicidal Activity 13 DAT [%] (EA)” value in the assay on Polygonum convolvulus (6000 g a.i./ha) came to 40%; with Chenopodium album [1] (6000 g a.i./ha), 40%; with Chenopodium album [1] (16000 g a.i./ha), 80%; in the assay on Abutilon theophrasti (6000 g a.i./ha), 45%; with Abutilon theophrasti (16000 g a.i./ha) it was 88%; with Setaria viridis (6000 g a.i./ha), 10%. Moreover, the “Herbicidal Activity 13 DAT [%] (EA)” value in the assay on Setaria viridis (16000 g a.i./ha) was determined as 45%; with Echinocloa crus-galli [2] (6000 g a.i./ha), 0%; in the assay with Echinocloa crus-galli [2] (16000 g a.i./ha) it was 25%; with Panicum maximum (6000 g a.i./ha) it was 20%; with Panicum maximum (16000 g a.i./ha), 50%; with Zea mays (6000 g a.i./ha) it was 38%. The “Herbicidal Activity 13 DAT [%] (EA)” value in the assay on Zea mays (16000 g a.i./ha) stood at 65%. Also, the “Herbicidal Activity 14 DAT [%] (EA)” value in the assay with Abuthilon theophrasti (6000 g a.i./ha) worked out at 30%; in the assay with Abuthilon theophrasti (12000 g a.i./ha), 57%; with Abuthilon theophrasti (16000 g a.i./ha) it was 57%; in the assay on Amaranthus retroflexus (6000 g a.i./ha), 13%; with Amaranthus retroflexus (12000 g a.i./ha) it was 90%; in the assay with Amaranthus retroflexus (16000 g a.i./ha) it was 93%. For the same molecule, the “Herbicidal Activity 14 DAT [%] (EA)” value was 20% in the assay on Chenopodium album [3] (6000 g a.i./ha); 88% in the assay with Chenopodium album [3] (12000 g a.i./ha); 97% in the assay with Chenopodium album [3] (16000 g a.i./ha); 13% in the assay with Echinocloa crus-galli [4] (6000 g a.i./ha); 30% in the assay with Echinocloa crus-galli [4] (12000 g a.i./ha); 33% in the assay with Echinocloa crus-galli [4] (16000 g a.i./ha).
For the molecule `CCNc1nc(Cl)nc(NC(C)(C)C)n1` [Terbuthylazin, terbuthylazine], the “Herbicidal Activity 14 DAT [%] (EA)” value in the assay on Abuthilon theophrasti (125 g a.i./ha) is listed as 0%; with Abuthilon theophrasti (250 g a.i./ha), 7%; in the assay with Abuthilon theophrasti (500 g a.i./ha) it was 7%; in the assay on Abuthilon theophrasti (750 g a.i./ha) it was 20%; in the assay with Amaranthus retroflexus (125 g a.i./ha) it was 0%; with Amaranthus retroflexus (250 g a.i./ha) it was 7%. Moreover, the “Herbicidal Activity 14 DAT [%] (EA)” value in the assay with Amaranthus retroflexus (500 g a.i./ha) is on record as 47%; in the assay with Amaranthus retroflexus (750 g a.i./ha) it was 63%; in the assay on Chenopodium album [3] (125 g a.i./ha), 0%; in the assay on Chenopodium album [3] (250 g a.i./ha), 13%; with Chenopodium album [3] (500 g a.i./ha), 67%; in the assay on Chenopodium album [3] (750 g a.i./ha), 78%. Besides, the “Herbicidal Activity 14 DAT [%] (EA)” value in the assay on Echinocloa crus-galli [4] (125 g a.i./ha), in the assay on Echinocloa crus-galli [4] (250 g a.i./ha), in the assay on Echinocloa crus-galli [4] (500 g a.i./ha) and with Echinocloa crus-galli [4] (750 g a.i./ha) was 0% throughout.
